Measured values taken from US8748347B2 (priority 2009, dated 2014).

Legend:
Septoria tritici = experiment: Fungicidal action on pathogens, growth in medium analyzed at 405 nm (Example 3); format: cell-based; details: 2% malt medium, 125 ppm, 18° C., seven days
Protocol: Various pathogens were tested under respective test mediums and concentrations of UV filters (see Table 2). The pathogens were incubated at a temperature of 18° C. for seven days. The growth of the pathogens was compared to an untreated sample. Table 2 lists the growth compared to the untreated sample, which corresponds to 100%. The growth was analyzed at 405 nm.

Ramularia collo-cygni = experiment: Preventive action on winter barley against Ramularia collo-cygni, field trial (Example 2); format: in vivo; details: barley variety Malwinta, natural infection, application at BBCH 49, evaluated 12 days after application, 0 = as untreated, 100 = not infected, UV Filter A 500 g ai/ha, Actives A & B 240 & 297 g ai/ha
Protocol: As active substance a mixture of active substances was used called “Actives A & B”, which was prepared by mixing Active A and Active B. Active A was a fungicidal suspension concentrate comprising 6 wt % epoxiconazol, 20.8 wt % boscalid, 11.2-12.6 wt % fatty alcohol alkoxylate, C8-alkyl glucoside, and phenolsulfonic acid-formaldehyde-polycondensate sodium salt (commercially available pesticide formulation from BASF SE as Champion®). Active B a fungicidal suspoemulsion comprising 20.6 wt % fenpropimorph, 11 wt % pyraclostrobin, 4.1 wt % epoxiconazol, 20.5 wt % solvent naphtha, 11 wt % fatty alcohol ethoxylate and 4.8 wt % phenolsulfonic acid-formaldehyde-polycondensate sodium salt (commercially available pesticide formulation from BASF SE as Diamant®). UV Filter A was prepared as described in example 1.
The biological trial was conducted under field conditions. The barley variety Malwinta was planted and grown under standard conditions with adequate supply of water and nutrients. […] The disease incidences were evaluated 12 days after application.
The diseases were converted into efficacies. […] The expected efficacies of active compound mixtures were determined using Colby's formula [R. S. Colby, “Calculating synergistic and antagonistic responses of herbicide combinations”, Weeds 15, 20-22 (1967)] and compared with the observed efficacies.

Phytophthora infestans = format: cell-based; details: YPBG medium, 125 ppm, 18° C., seven days

## COCCOCCOCCOCCOCCOCCOCCOC(=O)C(C#N)=C(c1ccccc1)c1ccccc1 [UV Filter A, 2-Cyano-3,3-diphenyl-acrylsäure-[Pluriol A350E]-ester]
Septoria tritici
  Growth (%) relative to untreated sample: 40%
Ramularia collo-cygni
  Efficacy: 0
Phytophthora infestans
  Growth (%) relative to untreated sample: 78%
